Data from patent US8729047B2, “Compositions for inhibiting redox-sensitive GTPases” (Board of Regents, The University of Texas System, priority 2010, dated 2014).

Legend:
RhoC C20S [1] = biological target: T1, RhoC C20S (Homo sapiens, UniProt P08134, C20S); assay: Redox agent-mediated 6-TGDP dissociation (FIG. 16C); assay type: biochemical; parameters: made in house; host or cells: E. coli; conditions: 6-TGDP-loaded RhoC C20S treated with redox agent, free [3H]GDP 10 μM
Procedure: (§1) FIG. 16. Kinetic properties of RhoC with 6-TGDP in the presence or absence of a redox agent. All kinetic analyses are described elsewhere herein. (A) ^appKD values of Rac1, RhoA, RhoC, and RhoC C20S for 6-TGDP were estimated to be 7.9, 11.6, 11.8, and 11.2 μM, respectively. ^trueKD values of Rac1, RhoA, […] for 6-TGDP were then calculated to be 5.1, 10.8, 11.1, and 10.5 μM, respectively, by using a compensation equation, ^trueKD for 6-TGDP=^appKD for 6-TGDP/(1+[[^3H]GDP]/^trueKD for GDP) (Heo, J., and Hong, I. (2010) Biochemistry 49, 3965-3976), in conjunction with the values given. […] The GDP dissociation rates from RhoC C20S by NO, .NO2, and N2O3 were estimated to be 0.02×10^−3, 0.05×10^−3, and 0.04×10^−3 s^−1, respectively. […] (D) ^appKD values of RhoC for [^3H]GDP in the presence or absence of DTT were estimated to be 22.4 μM and […], respectively. ^appKD values of C20S RhoC for [^3H]GDP in the presence or absence of DTT were determined to be 24.8 μM and 25.2 μM, respectively. The regression values associated with these fits were >0.8595. All data points associated with vertical standard error bars shown in this figure are the mean values of triplicate measurements.
(§2) Transition metal-free assay buffer and vials as described in a previous study (Heo et al. Biochemistry 49, 3965-3976 (2010)) were used for all kinetic assays. The kinetic assay buffer contains the highest grade of 50 mM NaCl, 10 mM MgCl2, 1 mM EDTA, and 0.1 mM DTPA in 50 mM TrisHCl (pH 7.4). Before performance of any of the assays, all protein samples also were dialyzed with a metal-free buffer under anaerobic conditions. As with RhoA and Rac1 (Heo et al. J. Biol. Chem. 280, 31003-31010 (2005)), C20S RhoC were expressed in E. coli and purified using anionic and size exclusion columns.
(§3) (c) To test the Rho 6-TGDP-binding interaction in the presence of redox agents, the 6-TGDP-loaded RhoC protein was treated with redox agents in the presence of free […] (10 μM). An association of RhoC protein with [^3H]GDP to produce a RhoC-[^3H]GDP complex will occur proportionally after RhoC releases 6-TGDP through the action of redox agents. Therefore, the fraction of the redox agent-mediated release of the bound 6-TGDP per Rho protein over time can be deduced by determination of the RhoC-bound [^3H]GDP, where the quantity of RhoC-bound 6-TGDP equals 1 minus the determined fraction of the RhoC-bound [^3H]GDP as described in Section (b). The estimated data associated with the quantity of RhoC-bound 6-TGDP then was fitted to a one-phase exponential decay; Prism software was used to derive the rate of 6-TGDP dissociation from RhoC.

RhoC [2] = biological target: T2, RhoC (Homo sapiens, UniProt P08134); assay: as above; assay type: biochemical; parameters: made in house; host or cells: E. coli; conditions: 6-TGDP-loaded RhoC treated with redox agent, free [3H]GDP 10 μM
Procedure: as §1, §2, §3

RhoC C20S [3] = biological target: T1, RhoC C20S; assay: Redox agent-mediated GDP dissociation (FIG. 16B); assay type: biochemical; parameters: made in house; host or cells: E. coli; conditions: [3H]GDP-loaded protein 1 μM, redox agent ~3 μM, free GDP 10 μM, anaerobic
Procedure: as §1, §2
(§4) (b) The effect of redox agents such as NO, .NO2, and N2O3 on the binding interaction between RhoC proteins and GDP or 6-TGDP was examined under N2-filled serum-stoppered anaerobic experimental conditions (O2<3 ppm). These anaerobic experimental conditions were necessary to block the reaction of NO or .NO2 with O2 to produce higher oxides. The contents of NO and .NO2, respectively, in the sealed assay vials were determined by using a hemoglobin assay and NO2^−/NO3^− Assay Kit-C II (Dojindo) under anaerobic conditions (Heo et al. J. Biol. Chem. 280, 31003-31010 (2005); Heo et al. Biochemistry 43, 2314-2322 (2004)). N2O3 was generated by mixing NO and .NO2 1:1 stoichiometrically. […] The fraction of the redox agent-mediated release of the bound [^3H]GDP per Rho protein over time was determined as noted above, and the result was plotted against time. The rates of RhoC GDP dissociation in the presence of redox agents were determined by using Prism software to fit the result to a one-phase exponential decay.

RhoC [4] = biological target: T2, RhoC; assay: Redox agent-mediated GDP dissociation (FIG. 16B); assay type: biochemical; parameters: made in house; host or cells: E. coli; conditions: [3H]GDP-loaded RhoC 1 μM, redox agent ~3 μM, free GDP 10 μM, anaerobic
Procedure: as §1, §2, §4

MLC = MLC phosphorylation in A7r5 cells; assay type: cell-based, rat; conditions: only NO donor, DETA/NO ≅10 μM, FIG. 20B
Procedure: (§5) FIG. 20. Determination of RhoA activity and MLC phosphorylation. […] Cell lysates in a buffer containing 1% NP-40, 10 mM EDTA, and 20 mM TrisHCl (pH 7.4) were centrifuged (50,000×g, 20 min) to remove solid matter. (A) The soluble cell extract was then used to perform Western blot analyses for RhoA and the MLC. This cell extract also was used for the co-IP-based ESI-MS analysis (FIG. 6). (B) A RhoA activity assay was colorimetrically determined using cell extract; the assay was performed with the RhoA G-LISA Activation Assay Kit (Cat. No. BK124) (Denver, Colo.). To examine the level of phosphorylation of the MLC, cells were cultured with ˜5 μCi of ^32P in 1 mL of phosphate-free DMEM. The collected cell extract was nutated with resin coupled with a macrophage myosin II antibody at 4° C. for 5 h. Resin was collected by centrifugation, and proteins bound to the resin were washed and eluted with a buffer (80° C.) containing […], 5 mM DTT, and 10 mM TrisHCl (pH 6.8). The immunoprecipitates were then analyzed by SDS-PAGE and autoradiographed. The values of RhoA activity and the MLC phosphorylation determined from untreated cells were set at 100%. […] The data represented in the figure represent the mean values of triplicate measurements, and the vertical error bar indicates standard errors.

RhoC C20S [5] = biological target: T1, RhoC C20S; assay: RhoC expression (Western) and RhoC activity assay in cells; assay type: cell-based; parameters: expressed in transfected cells; host or cells: human mammary epithelial (HME) cells; conditions: HME-C20S RhoC cells, NO donor alone, three days
Procedure: (§6) FIG. 14. Determination of cell invasiveness in the presence and absence of thiopurines and/or redox agents. […] Western blot analysis representing the total expression of RhoC in these cells also is shown. (B) Experimental procedures for the determination of the time-dependent motility of cells using the QCM Cell Invasion Assay kit in the presence and absence of 6-TG and DETA/NO are described elsewhere herein.
(§7) Cells were lysed in an extraction buffer containing 50 mM NaCl, 5 mM MgCl2, 1 mM ethylenediaminetetraacetic acid (EDTA), 0.1 mM diethylenetriaminepentaacetic acid (DTPA), and 0.1% NP40 in 150 mM TrisHCl (pH 8.0). The content of […] RhoC in cells then was determined by using Western analysis that relies on a monoclonal anti-RhoC antibody (Biocompare, South San Francisco, Calif.). To determine RhoC activity, the colorimetric RhoA activation assay Biochem Kit (Cytoskeleton, Denver, Colo.) was used essentially as described in the previous study (Hall et al. Neoplasia 10, 797-803 (2008)) except that the RhoC specific antibody (vide supra), instead of the RhoA antibody included in the assay kit, was used for this analysis.

RhoA = biological target: T3, RhoA (Rattus norvegicus, UniProt P61589); assay: RhoA expression (Western) and RhoA G-LISA activity in A7r5 cells; assay type: cell-based
T3 construct: endogenous in cells; host or cells: A7r5 cells (rat aortic vascular smooth muscle)
Procedure: as §5

RhoC [6] = biological target: T2, RhoC; assay: RhoC expression (Western) and RhoC activity assay in cells; assay type: cell-based; parameters: endogenous in cells; host or cells: SUM149, SUM102, SW480, HCCLM3 (endogenous); HME-RhoC (transfected with wild type RhoC); conditions: SUM149 and HME-RhoC cells, NO donor alone, three days
Procedure: as §6, §7

SUM149 cells [7] = assay: Matrigel invasion (cell motility) assay; assay type: cell-based, human; conditions: NO donor alone 10 μM, three days continuous; FIG. 14A
Source text: as §6
(§8) The top chamber of a Transwell filter (6.5 mm with 8 μm pores, Costar; Corning, N.Y.) was coated with a 10 μL aliquot of 10 mg/mL Matrigel, and the lower chamber of the Transwell was filled with either serum-free or serum-containing media. Sample cells were prepared to resuspend cells in a serum-free medium with 0.1% BSA at a concentration of 4×10^5 cells/mL. […] The Transwell filters were fixed with methanol, stained with haematoxylin and eosin, and cells in the serum-containing samples were counted. The number of cells that had invaded the serum-free, medium-containing lower chambers was used as a control background.

HME-C20S RhoC cells [8] = assay: Matrigel invasion (cell motility) assay; assay type: cell-based, human; conditions: NO donor alone 10 μM, three days continuous; FIG. 14A
Source text: as §6, §8

SUM149 cells [9] = assay: MTT cell viability and caspase-3/8 assays; assay type: cell-based, human; conditions: NO donor alone; FIG. 25
Source text: (§9) FIG. 25. […] (B) Caspase-3/8 assay: the apoptotic activity of sample cells treated with the apoptotic inducer was set to be 100%, and other results were then expressed as normalized values against the mean value associated with the treatment with the apoptotic inducer. For both (A) and (B), all values represent the mean values and standard error values from triplicate measurements.

HME-RhoC cells [10] = assay: MTT cell viability and caspase-3/8 assays; assay type: cell-based, human; conditions: NO donor alone; FIG. 25
Source text: as §9

HME-C20S RhoC cells [11] = assay: MTT cell viability and caspase-3/8 assays; assay type: cell-based, human; conditions: NO donor alone; FIG. 25
Source text: as §9

HME-RhoC cells [12] = assay: Matrigel invasion (cell motility) assay; assay type: cell-based, human; conditions: NO donor alone 10 μM, three days continuous; FIG. 14A
Procedure: FIG. 5. Determination of cell invasiveness in the presence and absence of 6-thiopurine and/or a redox agent. The top chamber of a Transwell filter (6.5 mm with 8 μm pores, Costar; Corning, N.Y.) was coated with a 10 μL aliquot of 10 mg/mL Matrigel (BD Biosciences, Bedford Mass.), and the lower chamber of the Transwell was filled with either serum-free or serum-containing media. Sample cells (e.g., 6-TG-resistant HME-RhoC cells) were prepared to resuspend cells in a serum-free medium with 0.1% BSA at a concentration of 4×10^5 cells/mL. At this point, neither 6-thiopurine nor GSNO were added to the cells. The sample cells (0.5 mL) were added to the top chamber of a Transwell filter and were incubated for 24 h at 37° C. in a 10% CO2 incubator. The Transwell filters were fixed with methanol, stained with H&E, and cells in the serum-containing samples were counted. The number of cells that had invaded the serum-free medium-containing lower chambers was used as a control background. Results are given as percent invasion over that seen in HME-RhoC cells (100%) and represent mean and standard error values from triplicate measurements.
FIG. 11. Determination of cell invasiveness in the presence and absence of […] and/or a redox agent. […] The number of cells that had invaded the serum-free medium-containing lower chambers was used as a control background. Results are given as percent invasion over that seen in HME-RhoC cells (100%) and represent mean and standard error values from triplicate measurements.
as §6, §8

HME-RhoC cells [13] = assay: Apoptosis / cell population of cells treated with thiopurines; assay type: cell-based, human; conditions: not shown

T2 sequence (P08134 whole entry): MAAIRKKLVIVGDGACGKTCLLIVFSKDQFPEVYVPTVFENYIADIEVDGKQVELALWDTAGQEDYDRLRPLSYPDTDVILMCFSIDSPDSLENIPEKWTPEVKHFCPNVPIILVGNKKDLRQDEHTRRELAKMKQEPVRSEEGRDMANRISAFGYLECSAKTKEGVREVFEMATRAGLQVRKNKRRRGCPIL
T1 sequence (P08134 whole entry C20S): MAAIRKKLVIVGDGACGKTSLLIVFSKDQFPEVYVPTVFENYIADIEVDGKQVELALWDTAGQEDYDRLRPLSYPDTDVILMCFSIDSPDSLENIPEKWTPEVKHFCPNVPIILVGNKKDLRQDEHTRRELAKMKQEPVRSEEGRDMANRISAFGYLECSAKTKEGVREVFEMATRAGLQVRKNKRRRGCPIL
T3 sequence (P61589 whole entry): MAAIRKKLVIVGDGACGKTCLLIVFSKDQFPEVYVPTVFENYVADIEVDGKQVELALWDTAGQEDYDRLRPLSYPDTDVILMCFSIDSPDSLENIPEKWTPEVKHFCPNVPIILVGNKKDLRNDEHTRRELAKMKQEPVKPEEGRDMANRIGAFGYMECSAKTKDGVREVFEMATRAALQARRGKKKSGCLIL

| SMILES | rate of 6-TGDP dissociation (RhoC C20S [1]) | rate of 6-TGDP dissociation (RhoC [2]) | rate of GDP dissociation (RhoC C20S [3]) | rate of GDP dissociation (RhoC [4]) | effect on RhoC activity (RhoC C20S [5]) | effect on RhoC activity (RhoC [6]) | effect on invasive cell motility (SUM149 cells [7]) | effect on invasive cell motility (HME-C20S RhoC cells [8]) | effect on invasive cell motility (HME-RhoC cells [12]) | cell population with other 6-TG analogs (HME-RhoC cells [13]) | also measured |
| --- | --- | --- | --- | --- | --- | --- | --- | --- | --- | --- | --- |
| [N]=O [NO, nitric oxide] | 4e-05 s⁻¹ | 8e-05 s⁻¹ | 2e-05 s⁻¹ | 0.00019 s⁻¹ | – | – | – | – | – | – | – |
| NCCN(CCN)/[N+]([O-])=N/O [DETA/NO, diethylenetriamine nitric oxide adduct] | – | – | – | – | minimal | minimal | minimal | minimal | minimal | – | MLC dephosphorylation (MLC): sizable fraction of the MLC was dephosphorylated; concentration of NO donor alone required for RhoA inactivation (RhoA; not shown): > 50 µM; RhoA inactivation (RhoA; only NO donor, DETA/NO ≅10 μM, FIG. 20B): minimal fraction of RhoA was inactivated; cell viability and caspase activity (SUM149 cells [9]): minimally changed; cell viability and caspase activity (HME-RhoC cells [10]): minimally changed; cell viability and caspase activity (HME-C20S RhoC cells [11]): minimally changed |
| [O]N=O [.NO2, nitrogen dioxide] | 0.00627 s⁻¹ | 0.00265 s⁻¹ | 5e-05 s⁻¹ | 0.00604 s⁻¹ | – | – | – | – | – | – | – |
| N[C@@H](CCC(=O)N[C@@H](CSN=O)C(=O)NCC(=O)O)C(=O)O [GSNO, S-Nitrosoglutathione] | – | – | – | – | minimal | minimal | minimal | minimal | minimal | – | – |
| Cn1cnc([N+](=O)[O-])c1Sc1ncnc2nc[nH]c12 [AZA, azathioprine] | – | – | – | – | – | – | – | – | – | decrease in the cell population | – |
| Sc1ncnc2nc[nH]c12 [6-MP, 6-mercaptopurine] | – | – | – | – | – | – | – | – | – | decrease in the cell population | – |
